Reference: patent US20170037028A1 (BAYER PHARMA AKTIENGESELLSCHAFT, priority 2013, published 2017)
Like-named read-outs stand apart in the source and are kept apart here.

Biological target: T1, GLUT1 (Homo sapiens, UniProt P11166)
T1 sequence (P11166 1-492): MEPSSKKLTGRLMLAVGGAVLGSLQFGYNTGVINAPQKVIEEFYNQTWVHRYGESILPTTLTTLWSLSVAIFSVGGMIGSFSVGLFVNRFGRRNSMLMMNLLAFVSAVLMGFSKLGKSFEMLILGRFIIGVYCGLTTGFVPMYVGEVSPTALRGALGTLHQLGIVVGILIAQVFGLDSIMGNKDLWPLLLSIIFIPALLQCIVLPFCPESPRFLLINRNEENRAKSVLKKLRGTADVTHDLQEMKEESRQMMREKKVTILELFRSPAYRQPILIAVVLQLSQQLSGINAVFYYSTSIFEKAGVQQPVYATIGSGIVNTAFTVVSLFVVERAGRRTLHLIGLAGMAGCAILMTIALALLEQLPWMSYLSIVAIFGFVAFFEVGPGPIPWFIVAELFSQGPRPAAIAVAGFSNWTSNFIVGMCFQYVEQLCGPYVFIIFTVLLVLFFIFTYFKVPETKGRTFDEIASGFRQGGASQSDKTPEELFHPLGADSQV
Assay: Indirect measurement of GLUT1 activity by quantification of intracellular ATP levels (glucose induced ATP increase)
Assay type: cell-based
Design: endogenous in cells; host or cells: DLD1 or CHO-K1
Conditions: read-out: IC50 regarding glucose induced ATP increase (GLUT1 inhibition)
How it was run: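 DLD1 or CHO-K1 cells were starved overnight in glucose-free medium with 1% FCS, then combined with an oxidative phosphorylation inhibitor. GLUT1 activity was read as glucose-induced ATP increase, GLUT2 as fructose-induced. Intracellular ATP was quantified by CellTiter-Glo luminescence.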

Row | IC50 [nM] | Compound | IC50 (DLD1 cells, 0.1 mM glucose, 1 μM Rotenone, 15 min, CellTiter-Glo ATP readout, IC50 values standardized to cytochalasin B IC50 values) [nM]
1 | 48.2 | CCc1noc(Cn2nc(C)c(NC(=O)c3cc(C(F)(F)F)nc4ccc(Br)cc34)c2C)n1 [Example 1570] | –
2 | 219 | Cc1c(NC(=O)c2cc(S(N)(=O)=O)nc3ccccc23)c(C(F)(F)F)nn1Cc1ccc(C#N)cc1 [Example 1572] | –
3 | 419 | Cc1nn(Cc2ccc(C#N)cc2)c(C)c1NC(=O)c1cc(S(N)(=O)=O)nc2ccccc12 [Example 1573] | –
4 | 49.3 | CNS(=O)(=O)c1cc(C(=O)Nc2c(C(F)(F)F)nn(Cc3ccc(C#N)cc3)c2C)c2ccccc2n1 [Example 1574] | –
5 | 37.9 | CNS(=O)(=O)c1cc(C(=O)Nc2c(C)nn(Cc3ccc(C#N)cc3)c2C)c2ccccc2n1 [Example 1575] | –
6 | 20.6 | Cc1c(NC(=O)c2cc(S(=O)(=O)N(C)C)nc3ccccc23)c(C(F)(F)F)nn1Cc1ccc(C#N)cc1 [Example 1576] | –
7 | 9.7 | Cc1nn(Cc2ccc(C#N)cc2)c(C)c1NC(=O)c1cc(S(=O)(=O)N(C)C)nc2ccccc12 [Example 1577] | –
8 | – | Cc1c(NC(=O)c2cc(C(N)=O)nc3cc(F)ccc23)c(C(F)(F)F)nn1Cc1cccc(C#N)c1 [Example 1578] | 25
9 | 23.4 | Cc1c(NC(=O)c2cc(C(N)=O)nc3ccccc23)c(C(F)(F)F)nn1Cc1cccc(C#N)c1 [Example 1579] | –
10 | 1.8 | Cc1c(NC(=O)c2cc(C(N)=O)nc3cc(F)c(Cl)cc23)c(C(F)(F)F)nn1Cc1cccc(C#N)c1 [Example 1580] | –
11 | 26.9 | Cc1c(NC(=O)c2cc(C(N)=O)nc3cccc(F)c23)c(C(F)(F)F)nn1Cc1cccc(C#N)c1 [Example 1581] | –
12 | 3.9 | COCc1ccc(Cn2nc(C)c(NC(=O)c3cc(C(N)=O)nc4cc(F)ccc34)c2C)cc1 [Example 1582] | –
13 | 11.4 | Cc1nn(Cc2cccc(OC(F)(F)F)c2)c(C)c1NC(=O)c1cc(C(N)=O)nc2cc(F)c(Cl)cc12 [Example 1583] | –
14 | 544 | Cc1c(NC(=O)c2cc(C(N)=O)nc3cccc(F)c23)c(C(F)(F)F)nn1Cc1cccc(OC(F)(F)F)c1 [Example 1584] | –
15 | 45.5 | Cc1nn(Cc2cccc(OC(F)(F)F)c2)c(C)c1NC(=O)c1cc(C(N)=O)nc2ccccc12 [Example 1585] | –
16 | 36.9 | Cc1nn(Cc2cccc(OC(F)(F)F)c2)c(C)c1NC(=O)c1cc(C(N)=O)nc2cc(F)ccc12 [Example 1586] | –
17 | 41.8 | Cc1nn(Cc2cccc(OC(F)(F)F)c2)c(C)c1NC(=O)c1cc(C(N)=O)nc2cccc(F)c12 [Example 1587] | –
18 | 175 | COc1ccccc1Cn1nc(C(F)(F)F)c(NC(=O)c2cc(C(N)=O)nc3cc(F)ccc23)c1C [Example 1588] | –
19 | 13.9 | Cc1c(NC(=O)c2cc(C(N)=O)nc3cc(F)c(Cl)cc23)c(C(F)(F)F)nn1Cc1ccc(C(F)(F)F)cc1 [Example 1589] | –
20 | 9.8 | Cc1c(NC(=O)c2cc(C(N)=O)nc3cc(F)ccc23)c(C(F)(F)F)nn1Cc1ccc(C(F)(F)F)cc1 [Example 1590] | –
21 | 16.6 | Cc1c(NC(=O)c2cc(C(N)=O)nc3cccc(F)c23)c(C(F)(F)F)nn1Cc1ccc(C(F)(F)F)cc1 [Example 1591] | –
22 | 1.3 | Cc1c(NC(=O)c2cc(C(N)=O)nc3ccccc23)c(C(F)(F)F)nn1Cc1ccc(CC#N)cc1 [Example 1592] | –
23 | 1.3 | Cc1c(NC(=O)c2cc(C(N)=O)nc3cccc(F)c23)c(C(F)(F)F)nn1Cc1ccc(CC#N)cc1 [Example 1593] | –
24 | 1.1 | Cc1c(NC(=O)c2cc(C(N)=O)nc3cc(F)c(Cl)cc23)c(C(F)(F)F)nn1Cc1ccc(CC#N)cc1 [Example 1594] | –
25 | 1.6 | Cc1c(NC(=O)c2cc(C(N)=O)nc3ccc(Br)cc23)c(C(F)(F)F)nn1Cc1ccc(CC#N)cc1 [Example 1595] | –
26 | 67.2 | Cc1c(NC(=O)c2cc(C(N)=O)nc3cc(F)ccc23)c(C(F)(F)F)nn1Cc1ccc(C(C)(C)C#N)cc1 [Example 1596] | –

Row | IC50 [nM] | Compound | IC50 (DLD1 cells, 0.1 mM glucose, 1 μM Rotenone, 15 min, CellTiter-Glo ATP readout, IC50 values standardized to cytochalasin B IC50 values) [nM]
27 | 89.9 | Cc1c(NC(=O)c2cc(C(N)=O)nc3cccc(F)c23)c(C(F)(F)F)nn1Cc1ccc(C(C)(C)C#N)cc1 [Example 1597] | –
28 | 1.4 | Cc1nn(Cc2ccc(C(F)(F)F)cc2)c(C)c1NC(=O)c1cc(C(N)=O)nc2cc(F)c(Cl)cc12 [Example 1598] | –
29 | 6.5 | Cc1nn(Cc2ccc(C(F)(F)F)cc2)c(C)c1NC(=O)c1cc(C(N)=O)nc2cc(F)ccc12 [Example 1599] | –
30 | 3.5 | Cc1nn(Cc2ccc(C(F)(F)F)cc2)c(C)c1NC(=O)c1cc(C(N)=O)nc2cccc(F)c12 [Example 1600] | –
31 | 24.6 | Cc1c(NC(=O)c2cc(C(N)=O)nc3cc(F)ccc23)c(C(F)(F)F)nn1Cc1cccc(C(N)=O)c1 [Example 1601] | –
32 | 29.3 | Cc1c(NC(=O)c2cc(C(N)=O)nc3cccc(F)c23)c(C(F)(F)F)nn1Cc1cccc(C(N)=O)c1 [Example 1602] | –
33 | 5.8 | Cc1c(NC(=O)c2cc(C(N)=O)nc3cc(F)c(Cl)cc23)c(C(F)(F)F)nn1Cc1cccc(C(N)=O)c1 [Example 1603] | –
34 | 4.7 | CC(=O)c1ccc(Cn2nc(C(F)(F)F)c(NC(=O)c3cc(C(N)=O)nc4ccccc34)c2C)cc1 [Example 1604] | –
35 | 2.6 | CC(=O)c1ccc(Cn2nc(C(F)(F)F)c(NC(=O)c3cc(C(N)=O)nc4cc(F)ccc34)c2C)cc1 [Example 1605] | –
36 | 2.4 | CC(=O)c1ccc(Cn2nc(C(F)(F)F)c(NC(=O)c3cc(C(N)=O)nc4cccc(F)c34)c2C)cc1 [Example 1606] | –
37 | 3.5 | CC(=O)c1ccc(Cn2nc(C)c(NC(=O)c3cc(C(N)=O)nc4ccccc34)c2C)cc1 [Example 1607] | –
38 | 4 | CC(=O)c1ccc(Cn2nc(C)c(NC(=O)c3cc(C(N)=O)nc4cc(F)ccc34)c2C)cc1 [Example 1608] | –
39 | 1.2 | CC(=O)c1ccc(Cn2nc(C)c(NC(=O)c3cc(C(N)=O)nc4cccc(F)c34)c2C)cc1 [Example 1609] | –
40 | 8.4 | Cc1ccc2c(C(=O)Nc3c(C(F)(F)F)nn(Cc4ccc(C#N)cc4)c3C)cc(C(N)=O)nc2c1 [Example 1610] | –
41 | 0.8 | Cc1c(NC(=O)c2cc(C(N)=O)nc3cc(F)c(Br)cc23)c(C(F)(F)F)nn1Cc1ccc(C#N)cc1 [Example 1611] | –
42 | 2.4 | Cc1nn(Cc2ccc(CC#N)cc2)c(C)c1NC(=O)c1cc(C(N)=O)nc2cccc(F)c12 [Example 1612] | –
43 | 0.7 | Cc1nn(Cc2ccc(CC#N)cc2)c(C)c1NC(=O)c1cc(C(N)=O)nc2cc(F)ccc12 [Example 1613] | –
44 | 0.8 | Cc1nn(Cc2ccc(CC#N)cc2)c(C)c1NC(=O)c1cc(C(N)=O)nc2ccccc12 [Example 1614] | –
45 | 67.4 | Cc1c(NC(=O)c2cc(C(N)=O)nc3cc(F)ccc23)c(C(F)(F)F)nn1Cc1ccc(C2CCC2)cc1 [Example 1616] | –
46 | 54.9 | Cc1c(NC(=O)c2cc(C(N)=O)nc3ccccc23)c(C(F)(F)F)nn1Cc1ccc(C2CCC2)cc1 [Example 1617] | –
47 | 22.3 | Cc1c(NC(=O)c2cc(C(N)=O)nc3cccc(F)c23)c(C(F)(F)F)nn1Cc1ccc(C2CCC2)cc1 [Example 1618] | –
48 | 40.1 | CC(=O)c1cccc(Cn2nc(C(F)(F)F)c(NC(=O)c3cc(C(N)=O)nc4cc(F)ccc34)c2C)c1 [Example 1619] | –
49 | 96.3 | CC(=O)c1cccc(Cn2nc(C(F)(F)F)c(NC(=O)c3cc(C(N)=O)nc4cccc(F)c34)c2C)c1 [Example 1620] | –
50 | 15.3 | CC(=O)c1cccc(Cn2nc(C(F)(F)F)c(NC(=O)c3cc(C(N)=O)nc4cc(F)c(Cl)cc34)c2C)c1 [Example 1621] | –
51 | 50.1 | CC(=O)c1cccc(Cn2nc(C(F)(F)F)c(NC(=O)c3cc(C(N)=O)nc4ccccc34)c2C)c1 [Example 1622] | –
